Experimental data reported in PubChem BioAssay (NCI).
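Briefly, cells in 96-well plates were exposed to five compound concentrations for 48 h, and endpoints were estimated by linear interpolation. At the GI50, growth is halved. TGI marks complete inhibition of growth.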

Columns and labels:
Test in all cases: NCI-60 cell line screen, 48 h
T-47D breast = tested on: T-47D breast
KM12 colon = tested on: KM12 colon
SK-MEL-5 melanoma = tested on: SK-MEL-5 melanoma
HT29 colon = tested on: HT29 colon
RXF 393 renal = tested on: RXF 393 renal
UO-31 renal = tested on: UO-31 renal
CCRF-CEM leukemia = tested on: CCRF-CEM leukemia
MOLT-4 leukemia = tested on: MOLT-4 leukemia
NCI-H522 lung = tested on: NCI-H522 lung
SW-620 colon = tested on: SW-620 colon
BT-549 breast = tested on: BT-549 breast
HOP-62 NSCLC = tested on: HOP-62 NSCLC
A549 NSCLC = tested on: A549 NSCLC
NCI-H460 lung = tested on: NCI-H460 lung
A498 renal = tested on: A498 renal
SF-539 CNS = tested on: SF-539 CNS
MALME-3M melanoma = tested on: MALME-3M melanoma
MCF7 breast = tested on: MCF7 breast
MDA-MB-435 = tested on: MDA-MB-435
SF-295 CNS = tested on: SF-295 CNS
OVCAR-4 ovarian = tested on: OVCAR-4 ovarian
SK-MEL-28 melanoma = tested on: SK-MEL-28 melanoma
CAKI-1 renal = tested on: CAKI-1 renal
MDA-MB-231 breast = tested on: MDA-MB-231 breast
UACC-62 melanoma = tested on: UACC-62 melanoma
OVCAR-5 ovarian = tested on: OVCAR-5 ovarian
HOP-92 NSCLC = tested on: HOP-92 NSCLC
MDA-MB-468 breast = tested on: MDA-MB-468 breast
COLO 205 colon = tested on: COLO 205 colon
HCT-15 colon = tested on: HCT-15 colon

Q: For `N#Cc1c(NC(=O)c2ccc(C(F)(F)F)c(Cl)c2)sc2c1CCC(=O)C2`, which TGI (T-47D breast) is on record?
A: The TGI was 2960 nM.

Q: What about the GI50 (KM12 colon) of the same compound?
A: The GI50 was 1140 nM.

Q: And the TGI (KM12 colon)?
A: Its TGI is 3530 nM.

Q: And the GI50 (SK-MEL-5 melanoma)?
A: Its GI50 is 1580 nM.

Q: What about the TGI (SK-MEL-5 melanoma) of the same compound?
A: Its TGI is 2970 nM.

Q: What about the GI50 (HT29 colon) of the same compound?
A: The GI50 was 943 nM.

Q: And the TGI (HT29 colon)?
A: The TGI was 3530 nM.

Q: And the GI50 (RXF 393 renal)?
A: The GI50 was 618 nM.

Q: What about the TGI (RXF 393 renal) of the same compound?
A: Its TGI is 1950 nM.

Q: And the GI50 (UO-31 renal)?
A: Its GI50 is 479 nM.

Q: And the TGI (UO-31 renal)?
A: Its TGI is 1710 nM.

Q: And the GI50 (CCRF-CEM leukemia)?
A: The GI50 was 334 nM.

Q: And the TGI (CCRF-CEM leukemia)?
A: Its TGI is 3530 nM.

Q: And the GI50 (MOLT-4 leukemia)?
A: Its GI50 is 568 nM.

Q: And the TGI (MOLT-4 leukemia)?
A: Its TGI is 6260 nM.

Q: What about the GI50 (NCI-H522 lung) of the same compound?
A: Its GI50 is 346 nM.

Q: What about the TGI (NCI-H522 lung) of the same compound?
A: The TGI was 1350 nM.

Q: And the GI50 (SW-620 colon)?
A: Its GI50 is 400 nM.

Q: And the TGI (SW-620 colon)?
A: Its TGI is 1790 nM.

Q: What about the GI50 (BT-549 breast) of the same compound?
A: Its GI50 is 365 nM.

Q: What about the TGI (BT-549 breast) of the same compound?
A: Its TGI is 1410 nM.

Q: And the GI50 (HOP-62 NSCLC)?
A: The GI50 was 2160 nM.

Q: What about the TGI (HOP-62 NSCLC) of the same compound?
A: The TGI was 6050 nM.

Q: And the GI50 (A549 NSCLC)?
A: Its GI50 is 2440 nM.

Q: And the TGI (A549 NSCLC)?
A: Its TGI is 7660 nM.

Q: What about the GI50 (NCI-H460 lung) of the same compound?
A: The GI50 was 2720 nM.

Q: What about the TGI (NCI-H460 lung) of the same compound?
A: Its TGI is 8900 nM.

Q: And the GI50 (A498 renal)?
A: Its GI50 is 12600 nM.

Q: And the TGI (A498 renal)?
A: The TGI was 34900 nM.

Q: And the GI50 (SF-539 CNS)?
A: The GI50 was 514 nM.

Q: And the TGI (SF-539 CNS)?
A: Its TGI is 1650 nM.

Q: And the GI50 (MALME-3M melanoma)?
A: Its GI50 is 1260 nM.

Q: What about the TGI (MALME-3M melanoma) of the same compound?
A: Its TGI is 3150 nM.

Q: What about the GI50 (MCF7 breast) of the same compound?
A: The GI50 was 1470 nM.

Q: And the TGI (MCF7 breast)?
A: The TGI was 7500 nM.

Q: And the GI50 (MDA-MB-435)?
A: The GI50 was 1600 nM.

Q: What about the TGI (MDA-MB-435) of the same compound?
A: Its TGI is 3080 nM.

Q: What about the GI50 (SF-295 CNS) of the same compound?
A: Its GI50 is 1630 nM.

Q: What about the TGI (SF-295 CNS) of the same compound?
A: Its TGI is 3410 nM.

Q: And the GI50 (OVCAR-4 ovarian)?
A: The GI50 was 1320 nM.

Q: What about the TGI (OVCAR-4 ovarian) of the same compound?
A: The TGI was 2860 nM.

Q: And the GI50 (SK-MEL-28 melanoma)?
A: Its GI50 is 1080 nM.

Q: And the TGI (SK-MEL-28 melanoma)?
A: Its TGI is 2570 nM.

Q: And the GI50 (CAKI-1 renal)?
A: Its GI50 is 725 nM.

Q: What about the TGI (CAKI-1 renal) of the same compound?
A: The TGI was 2120 nM.

Q: And the GI50 (MDA-MB-231 breast)?
A: The GI50 was 1460 nM.

Q: What about the TGI (MDA-MB-231 breast) of the same compound?
A: The TGI was 3000 nM.

Q: What about the GI50 (UACC-62 melanoma) of the same compound?
A: The GI50 was 1230 nM.

Q: What about the TGI (UACC-62 melanoma) of the same compound?
A: The TGI was 2660 nM.

Q: What about the GI50 (OVCAR-5 ovarian) of the same compound?
A: The GI50 was 1830 nM.

Q: What about the TGI (OVCAR-5 ovarian) of the same compound?
A: Its TGI is 3870 nM.

Q: And the GI50 (HOP-92 NSCLC)?
A: The GI50 was 1190 nM.

Q: What about the TGI (HOP-92 NSCLC) of the same compound?
A: The TGI was 3240 nM.

Q: And the GI50 (MDA-MB-468 breast)?
A: Its GI50 is 416 nM.

Q: What about the TGI (MDA-MB-468 breast) of the same compound?
A: Its TGI is 1490 nM.

Q: And the GI50 (COLO 205 colon)?
A: Its GI50 is 1170 nM.

Q: What about the TGI (COLO 205 colon) of the same compound?
A: Its TGI is 2610 nM.

Q: And the GI50 (HCT-15 colon)?
A: The GI50 was 963 nM.

Q: What about the TGI (HCT-15 colon) of the same compound?
A: The TGI was 2860 nM.
